Here are results for 13 compounds from PubChem BioAssay (NCI).

The term TGI denotes the concentration at which net growth stops. Usually GI50 stands for the concentration that inhibits growth by half.

Among the test systems are RXF 393 renal; SK-MEL-28 melanoma; HT29 colon; A549 NSCLC; ACHN renal; MOLT-4 leukemia; SR leukemia; HOP-92 NSCLC; HOP-62 NSCLC; PC-3 prostate.
Common to all, as to experiment: DTP human tumour cell line panel, 48 h

The structures appear in SMILES notation. Where “and” joins values, the source holds several entries; their conditions need not be identical. Equal values may be shown once.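 Exposure lasted 48 hours, with cells grown in 96-well plates and compounds tested at five concentrations. Abbreviation: GI50, concentration required for 50% inhibition of growth. TGI marks complete inhibition of growth.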 Where only a bound is given, the exact number is not on record here.

With `CC1=CC2=C(OCO1)C(=O)c1ccccc1C2=O`, the TGI worked out at 12.5 µM in the test on RXF 393 renal; 10.3 µM in the test on SK-MEL-28 melanoma; 16.8 µM in the test on HT29 colon; 38.9 µM in the test on A549 NSCLC; 18.6 µM in the test on ACHN renal; 25.3 µM in the test on MOLT-4 leukemia. The TGI with SR leukemia is 41.7 µM; with HOP-92 NSCLC it was 23 µM; in the test with HOP-62 NSCLC it was 15.1 µM; with PC-3 prostate, greater than 100 µM.

For `CCCCCCN(CCCCCC)C(=N)c1ccnc2ccccc12`, the GI50 with RXF 393 renal was 4.57 µM; with SK-MEL-28 melanoma it was 3.13 µM; in the test on HT29 colon, 0.835 µM; in the test on A549 NSCLC, 11.9 µM; in the test with ACHN renal it was 4.23 µM; in the test with MOLT-4 leukemia it was 3.11 µM. For the same compound, the GI50 is 1.74 µM with SR leukemia, 1.39 µM with HOP-92 NSCLC, 10.8 µM with HOP-62 NSCLC and 5.81 µM in the test on PC-3 prostate. For the same compound, the TGI in the test on RXF 393 renal is 15.5 µM; in the test on SK-MEL-28 melanoma it was 8.6 µM; in the test with HT29 colon, 7.88 µM; in the test on A549 NSCLC, 25.9 µM; in the test on ACHN renal, 16.3 µM; with MOLT-4 leukemia it was 17.2 µM. In addition, the concentration for total growth inhibition (TGI) in the test on SR leukemia amounted to 5.34 µM; with HOP-92 NSCLC, 9.22 µM; in the test with HOP-62 NSCLC it was 24.2 µM; with PC-3 prostate, 20.2 µM.

Consider `COc1cccc(-c2nn(-c3ccccc3)cc2-c2ccnc(NCCNS(=O)(=O)c3ccc(C(F)(F)F)cc3)c2)c1`, for which the GI50 with RXF 393 renal is 2.1 µM; in the test with SK-MEL-28 melanoma, 5.66 µM; with HT29 colon it was 2.32 µM; with A549 NSCLC, 3.71 µM; in the test with ACHN renal, 3.4 µM; in the test on MOLT-4 leukemia, 1.93 µM. The GI50 with SR leukemia was 1.77 µM; in the test on HOP-92 NSCLC, 2.12 µM; in the test with HOP-62 NSCLC it was 4.16 µM; in the test on PC-3 prostate, 2.86 µM. In addition, the TGI in the test on RXF 393 renal was 5.5 µM; in the test on SK-MEL-28 melanoma it was greater than 100 µM; in the test on HT29 colon, 5.75 µM; with A549 NSCLC it was 32 µM; with ACHN renal it was greater than 100 µM; with MOLT-4 leukemia, 5.48 µM. Further, the TGI in the test on SR leukemia was 4.6 µM; in the test on HOP-92 NSCLC, 6.83 µM; in the test on HOP-62 NSCLC it was 43.6 µM; with PC-3 prostate, 26.7 µM.

`CON(C)C(=O)C(Cc1ccccc1)NC(=O)OC(C)(C)C` (stereo unspecified): the concentration for total growth inhibition (TGI) in the test on RXF 393 renal, with SK-MEL-28 melanoma, with HT29 colon, in the test with A549 NSCLC, in the test with ACHN renal and in the test with MOLT-4 leukemia was greater than 100 µM in each case. Besides, the TGI with SR leukemia, in the test with HOP-92 NSCLC, in the test with HOP-62 NSCLC and with PC-3 prostate was greater than 100 µM throughout.

As to `O=C(OC(C(=O)O)C(OC(=O)c1ccccc1)C(=O)O)c1ccccc1` (stereo unspecified) (tested in a mixture with another compound), the TGI in the test on RXF 393 renal, in the test with SK-MEL-28 melanoma, in the test with HT29 colon, with A549 NSCLC, in the test with ACHN renal and with MOLT-4 leukemia was greater than 100 µM each time. The concentration for total growth inhibition (TGI) was greater than 100 µM with SR leukemia, 55.9 µM in the test with HOP-92 NSCLC, greater than 100 µM in the test on HOP-62 NSCLC and 33.5 µM in the test on PC-3 prostate.

Regarding `CCN(Cc1ccc(F)cc1)c1ccc(CO)c(Cl)c1`, the GI50 in the test with RXF 393 renal was 2.81 µM; in the test with SK-MEL-28 melanoma, 14.5 µM; in the test on HT29 colon, 3.02 µM; with A549 NSCLC it was 1.16 µM; in the test with ACHN renal it was 10.2 µM; in the test with MOLT-4 leukemia it was 15.1 µM. Also, the GI50 is 15.3 µM with SR leukemia, 0.956 µM with HOP-92 NSCLC, 0.576 µM with HOP-62 NSCLC and 14.3 µM with PC-3 prostate. Further, the TGI in the test on RXF 393 renal was 21.2 µM; in the test on SK-MEL-28 melanoma, 39.3 µM; with HT29 colon it was 16.1 µM; in the test with A549 NSCLC it was 22.6 µM; in the test with ACHN renal it was greater than 48.6 µM; in the test on MOLT-4 leukemia, 42.6 µM. For the same compound, the TGI was determined as 51.5 µM with SR leukemia, 13.1 µM in the test on HOP-92 NSCLC, 25.1 µM with HOP-62 NSCLC and 49.4 µM with PC-3 prostate.

Regarding `COc1cc(N2CCC(N3CCN(C)CC3)CC2)ccc1Nc1ncc(Cl)c(Nc2ccccc2P(C)(C)=O)n1`, the GI50 is 0.642 µM with RXF 393 renal; 18.5 µM with SK-MEL-28 melanoma; 0.204 µM in the test on HT29 colon; 1.21 µM with A549 NSCLC; 1.12 µM in the test with ACHN renal; 4.58 µM in the test on MOLT-4 leukemia. Moreover, the GI50 in the test with HOP-92 NSCLC was 0.4 µM; with HOP-62 NSCLC, 0.797 µM; in the test on PC-3 prostate it was 4.19 µM. In addition, the TGI in the test with RXF 393 renal is 2.4 µM; in the test on SK-MEL-28 melanoma it was greater than 100 µM; in the test with HT29 colon, 4.81 µM; with A549 NSCLC it was 14.1 µM; in the test on ACHN renal it was 9.65 µM; in the test with MOLT-4 leukemia, greater than 100 µM. For the same compound, the TGI with SR leukemia was greater than 33.6 µM; in the test on HOP-92 NSCLC it was 2.41 µM; in the test on HOP-62 NSCLC, greater than 32 µM; with PC-3 prostate, greater than 100 µM.

As to `[N-]=[N+]=NC1(N=[N+]=[N-])C(=O)NN=C(c2ccccc2)C1=O` (stereo unspecified), the concentration for total growth inhibition (TGI) in the test on RXF 393 renal was greater than 100 µM; with SK-MEL-28 melanoma, 31.9 µM; with HT29 colon, greater than 100 µM; with A549 NSCLC it was greater than 100 µM; in the test with ACHN renal, greater than 100 µM; with MOLT-4 leukemia, 73.6 µM. Also, the TGI is 75.5 µM in the test with SR leukemia, greater than 100 µM with HOP-92 NSCLC, greater than 100 µM in the test on HOP-62 NSCLC and greater than 100 µM in the test on PC-3 prostate.

For `C=C(C)C(=O)NC(N)=NC#N`, the GI50 in the test on RXF 393 renal was 63 µM; in the test with SK-MEL-28 melanoma, 75 µM; in the test on HT29 colon, 102 µM; in the test on ACHN renal, 68 µM; in the test on MOLT-4 leukemia, 21.5 µM and 46.7 µM; in the test on HOP-92 NSCLC, 26.7 µM. Besides, the GI50 with HOP-62 NSCLC is 206 µM. In addition, the TGI in the test on RXF 393 renal is 65.7 µM and 200 µM; with SK-MEL-28 melanoma it was > 56.9 µM and 205 µM; in the test with HT29 colon it was 248 µM; in the test with A549 NSCLC, 307 µM; with ACHN renal, 271 µM; with MOLT-4 leukemia it was 52.2 µM and 255 µM. Further, the concentration for total growth inhibition (TGI) is 87.9 µM and 132 µM in the test on SR leukemia; 33.7 µM and 63.1 µM with HOP-92 NSCLC; 362 µM in the test with HOP-62 NSCLC; 293 µM with PC-3 prostate.

With `Cc1cc(Cl)ccc1Nc1sc(C(=O)c2cc3cc(Cl)ccc3o2)c(N)c1C#N`, the TGI in the test on RXF 393 renal was greater than 100 µM; in the test on SK-MEL-28 melanoma, greater than 100 µM; in the test on HT29 colon it was greater than 100 µM; with A549 NSCLC, greater than 54.7 µM; with ACHN renal, 98.1 µM; with MOLT-4 leukemia it was greater than 100 µM. Moreover, the TGI in the test on SR leukemia is greater than 100 µM; with HOP-92 NSCLC, greater than 100 µM; in the test on HOP-62 NSCLC, greater than 37.6 µM; in the test with PC-3 prostate, greater than 100 µM.

Consider `Cc1cc(NC(=O)c2ccc(NS(=O)(=O)CCO)cc2N2CCC3(CC2)CC3)nc(N2CCC(F)(F)CC2)n1`, for which the GI50 was 0.26 µM with RXF 393 renal; 16.8 µM in the test on SK-MEL-28 melanoma; 0.0755 µM in the test on HT29 colon; 14.2 µM with A549 NSCLC; 13.5 µM in the test on ACHN renal; 12.1 µM with MOLT-4 leukemia. The GI50 with SR leukemia is 1.68 µM; in the test on HOP-92 NSCLC, 14.5 µM; with HOP-62 NSCLC, 13.7 µM; with PC-3 prostate, 7.46 µM. Further, the TGI in the test with RXF 393 renal was 6.58 µM; with SK-MEL-28 melanoma, 30.7 µM; in the test with HT29 colon, 14.2 µM; in the test with A549 NSCLC, 30.4 µM; in the test with ACHN renal, 26.4 µM; in the test on MOLT-4 leukemia, 33.1 µM. Moreover, the total growth inhibition concentration (TGI) in the test on SR leukemia came to 25.3 µM; in the test with HOP-92 NSCLC it was 29.6 µM; with HOP-62 NSCLC, 30.4 µM; with PC-3 prostate, 23.6 µM.

In the case of `Nc1ncc(-c2cnn(C3CCNCC3)c2)cc1-c1nc2ccccc2o1`, the GI50 is 0.485 µM in the test on RXF 393 renal; 1.74 µM with SK-MEL-28 melanoma; 0.441 µM with HT29 colon; 1.2 µM in the test on A549 NSCLC; 0.86 µM in the test on ACHN renal; 0.361 µM in the test on MOLT-4 leukemia. In addition, the GI50 in the test on SR leukemia was 0.266 µM; in the test with HOP-92 NSCLC, 0.553 µM; with HOP-62 NSCLC, 0.915 µM; in the test with PC-3 prostate, 1.59 µM. Moreover, the TGI is 2.25 µM with RXF 393 renal; 3.17 µM in the test on SK-MEL-28 melanoma; 2.63 µM with HT29 colon; 4.27 µM in the test with A549 NSCLC; 2.71 µM in the test with ACHN renal; 1.32 µM in the test on MOLT-4 leukemia. Also, the TGI is 1.09 µM in the test with SR leukemia, 2.05 µM in the test with HOP-92 NSCLC, 5.19 µM with HOP-62 NSCLC and 6.68 µM with PC-3 prostate.

`CS(=O)(=O)CCNCc1ccc(-c2ccc3ncnc(Nc4ccc(OCc5ccccc5)c(C(F)(F)F)c4)c3c2)o1`: the GI50 in the test on RXF 393 renal was 3.53 µM; in the test on SK-MEL-28 melanoma, 4.43 µM; in the test on HT29 colon, 4.95 µM; in the test with A549 NSCLC, 8.23 µM; in the test on ACHN renal, 7.32 µM; with MOLT-4 leukemia, 5.77 µM. Moreover, the GI50 in the test with SR leukemia was 7.47 µM; with HOP-92 NSCLC it was 4.9 µM; with HOP-62 NSCLC, 6.16 µM; with PC-3 prostate, 6.88 µM. The TGI was 7.77 µM in the test on RXF 393 renal; 8.83 µM in the test with SK-MEL-28 melanoma; 9.05 µM with HT29 colon; greater than 25 µM in the test on A549 NSCLC; greater than 25 µM in the test on ACHN renal; 17.9 µM with MOLT-4 leukemia. The TGI is 19.9 µM in the test on SR leukemia, 20.8 µM with HOP-92 NSCLC, 15.8 µM in the test with HOP-62 NSCLC and greater than 21 µM with PC-3 prostate.
